Measurements reported in patent publication US20060069132A1, “Azolecarboxamide herbicides” (priority 2004, published 2006).

Tests used:
barnyardgrass [1] = test: Test A pre-/postemergence herbicide test; assay type: in vivo, Echinochloa crus-galli
Procedure, shortened: (§1)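 Pre: seeded sandy loam, directed soil spray, compound in non-phytotoxic solvent + surfactant. Post: 1–2-leaf plants (2–10 cm), sprayed to runoff. Greenhouse ~10 d; visual injury vs untreated, 0–100 scale.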

[2] = system: common (oilseed) sunflower; test: Test C pre-/postemergence herbicide test; assay type: in vivo, Helianthus annuus; conditions: for Plant response rating (0 = no effect, 100 = complete control), Sunflower / Plant response rating, Sunflower: preemergence; for Sunflower plant response rating: Preemergence, scale 0 to 100, 0 no effect, 100 complete control
Procedure, shortened: (§2)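 Visual injury scores run from 0 (no effect) to 100 (complete control), assessed relative to untreated controls 12 to 14 days after treatment in the greenhouse. Chemicals were formulated in a non-phytotoxic solvent mixture with surfactant and applied to soil after planting or to emerged plants at the 1- to 4-leaf stage.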

morningglory = test: Test A pre-/postemergence herbicide test; assay type: in vivo, Ipomoea spp.
Procedure, shortened: as §1

large crabgrass = test: Test A pre-/postemergence herbicide test; assay type: in vivo, Digitaria sanguinalis
Procedure, shortened: as §1

rice = test: Test C flooded paddy test; assay type: in vivo, Oryza sativa; conditions: for Plant response rating, Rice: visual rating after 12 to 14 days
Procedure, shortened: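 Injury scored visually against controls on a 0 (no effect) to 100 (complete control) scale, 12 to 14 days after treatment in greenhouse. Flooded paddy plants treated at 2-leaf stage; postemergence plants at 1- to 4-leaf stage, 2 to 18 cm tall.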

Surinam grass = test: Test C pre-/postemergence herbicide test; assay type: in vivo, Urochloa decumbens
Procedure, shortened: as §2

barnyardgrass [3] = test: Test C flooded paddy test; assay type: in vivo, Echinochloa crus-galli; conditions: for Plant response rating, Barnyardgrass: visual rating after 12 to 14 days
Procedure, shortened: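 Ratings (0 = no effect, 100 = complete control) come from visual comparison with untreated plants after 12 to 14 days in the greenhouse. Treatment was postemergence at the 1- to 4-leaf stage (2–18 cm), or at the 2-leaf stage for the flooded paddy barnyardgrass.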

[4] = Postemergence, 250 g ai/ha, 0 to 100 scale, 0 no effect, 100 complete control
[5] = Postemergence, 1000 g ai/ha, 0 to 100 scale, 0 no effect, 100 complete control
[6] = Preemergence, 1000 g ai/ha, visual rating, 0 to 100 scale (0 no effect, 100 complete control)
[7] = preemergence, 250 g ai/ha, visual injury, 0 to 100 scale (0 no effect, 100 complete control)
[8] = 250 g ai/ha, scale 0 to 100 (0 no effect, 100 complete control), visual, 12 to 14 days
[9] = 62 g ai/ha, scale 0 to 100 (0 no effect, 100 complete control)
[10] = 125 g ai/ha, scale of 0 to 100, 0 is no effect, 100 is complete control
[11] = 250 g ai/ha, scale 0 to 100 (0 no effect, 100 complete control)
[12] = 500 g ai/ha, scale 0 to 100 (0 no effect, 100 complete control)
[13] = 250 g ai/ha, scale 0 to 100 (0 no effect, 100 complete control), visual, 12 to 14 days, preemergence
[14] = Postemergence, 500 g ai/ha, scale 0 to 100
[15] = Postemergence, 250 g ai/ha, scale 0 to 100, 0 no effect, 100 complete control
[16] = Preemergence, 500 g ai/ha, scale 0 to 100, 0 no effect, 100 complete control
[17] = postemergence, 125 g ai/ha, scale 0 to 100
[18] = postemergence, 62 g ai/ha, scale 0 to 100
[19] = Postemergence, 500 g ai/ha, 0 to 100 scale, 0 no effect, 100 complete control
[20] = Postemergence, 2000 g ai/ha, 0 to 100 scale, 0 no effect, 100 complete control
[21] = Preemergence, 500 g ai/ha, visual rating, 0 to 100 scale (0 no effect, 100 complete control)
[22] = Preemergence, 2000 g ai/ha, 0 to 100 scale, 0 no effect, 100 complete control
[23] = 500 g ai/ha, scale 0 to 100 (0 no effect, 100 complete control), visual, 12 to 14 days
[24] = 125 g ai/ha, scale 0 to 100 (0 no effect, 100 complete control)
[25] = 250 g ai/ha, scale of 0 to 100, 0 is no effect, 100 is complete control
[26] = 250 g ai/ha, scale 0-100, preemergence
[27] = 500 g ai/ha, scale 0 to 100 (0 no effect, 100 complete control), visual, 12 to 14 days, preemergence
[28] = 62 g ai/ha, preemergence, scale 0 to 100

Row | Structure (SMILES) | Plant response rating (0 = no effect, 100 = complete control), Sunflower ([2]; 62 g ai/ha) | Plant response rating, Sunflower [2, 8] | Sunflower plant response rating ([2]; 500 g ai/ha) | Rice plant response rating (rice; [9]) | Rice plant response rating (rice; [10]) | Plant response rating, Rice (rice; [11]) | Plant response rating, Rice (rice; [12]) | Plant response rating (0 = no effect, 100 = complete control), Surinam Grass (Surinam grass; 62 g ai/ha, preemergence) | Plant response rating, Surinam Grass (Surinam grass; [13]) | Surinam Grass plant response rating (Surinam grass; [14]) | Barnyardgrass plant response rating (barnyardgrass [3]; [9]) | Plant response rating, Barnyardgrass (barnyardgrass [3]; [12]) | Plant response rating, Sunflower [2, 23] | Rice plant response rating (rice; 62 g ai/ha, scale 0 to 100) | Rice plant response rating (rice; [24]) | Rice plant response rating (rice; [25]) | Plant response rating (0 = no effect, 100 = complete control), Surinam Grass (Surinam grass; 125 g ai/ha, preemergence) | Plant response rating, Surinam Grass (Surinam grass; [27]) | Barnyardgrass plant response rating (barnyardgrass [3]; [24]) | Barnyardgrass plant response rating (barnyardgrass [3]; [25]) | also measured
1 | CCNC(=O)c1cccc(NC(=O)c2cc(C(C)(C)C)nn2CC(F)(F)F)c1 [Compound 31] | 0 | 20 | 20 | 0 | 10 | 40 | 50 | 10 | 30 | 50 | 0 | 75 |  |  |  |  |  |  |  |  | Barnyardgrass plant response rating (barnyardgrass [1]; [4]): 65; Plant response rating, Barnyardgrass (barnyardgrass [1]; [5]): 75; Barnyardgrass plant response rating (barnyardgrass [1]; [6]): 80; Barnyardgrass plant response rating (barnyardgrass [1]; [7]): 40; Morningglory plant response rating (morningglory; [4]): 5; Plant response rating, Morningglory (morningglory; [5]): 20; Morningglory plant response rating (morningglory; [6]): 55; Morningglory plant response rating (morningglory; [7]): 0; Crabgrass, Large plant response rating (large crabgrass; [4]): 30; Plant response rating, Crabgrass, Large (large crabgrass; [5]): 40; Crabgrass, Large plant response rating (large crabgrass; [6]): 45; Crabgrass, Large plant response rating (large crabgrass; [7]): 20; Plant response rating, Surinam Grass (Surinam grass; [15]): 50; Surinam Grass plant response rating (Surinam grass; [16]): 60; Plant response rating, Surinam Grass (Surinam grass; [17]): 40; Plant response rating, Surinam Grass (Surinam grass; [18]): 30; Barnyardgrass plant response rating (barnyardgrass [3]; [10]): 30; Plant response rating, Barnyardgrass (barnyardgrass [3]; [11]): 70
2 | C=Cn1nc(C(C)(C)C)cc1C(=O)Nc1cccc(C(=O)N(CC)CC)c1 [Compound 34] | 0 | 0 | 0 | 0 | 0 | 50 | 55 | 10 | 60 | 70 | 0 | 65 |  |  |  |  |  |  |  |  | Plant response rating, Barnyardgrass (barnyardgrass [1]; [19]): 45; Plant response rating, Barnyardgrass (barnyardgrass [1]; [20]): 80; Barnyardgrass plant response rating (barnyardgrass [1]; [21]): 55; Barnyardgrass plant response rating (barnyardgrass [1]; [22]): 80; Plant response rating, Morningglory (morningglory; [19]): 10; Plant response rating, Morningglory (morningglory; [20]): 20; Morningglory plant response rating (morningglory; [21]): 35; Morningglory plant response rating (morningglory; [22]): 50; Plant response rating, Crabgrass, Large (large crabgrass; [19]): 30; Plant response rating, Crabgrass, Large (large crabgrass; [20]): 50; Crabgrass, Large plant response rating (large crabgrass; [21]): 60; Crabgrass, Large plant response rating (large crabgrass; [22]): 100; Plant response rating, Surinam Grass (Surinam grass; [15]): 50; Surinam Grass plant response rating (Surinam grass; [16]): 70; Plant response rating, Surinam Grass (Surinam grass; [17]): 30; Plant response rating, Surinam Grass (Surinam grass; [18]): 20; Barnyardgrass plant response rating (barnyardgrass [3]; [10]): 35; Plant response rating, Barnyardgrass (barnyardgrass [3]; [11]): 45
3 | C=CCNC(=O)c1cccc(NC(=O)c2nn(C(C)C)nc2CC)c1 [Compound 382] |  |  |  |  |  |  | 75 |  |  |  | 10 | 75 | 20 | 20 | 55 | 70 | 95 | 100 | 25 | 65 | Plant response rating, Sunflower ([2]; 62 g ai/ha, scale 0 to 100): 0; Plant response rating, Sunflower ([2]; 250 g ai/ha, scale 0-100): 0; Plant response rating, Surinam Grass (Surinam grass; [26]): 100
4 | CCc1nn(C(C)C)nc1C(=O)Nc1cccc(C(=O)N(C)CC)c1 [Compound 386] |  |  |  |  |  |  | 75 |  |  |  | 30 | 95 | 85 | 25 | 65 | 70 | 80 | 95 | 50 | 80 | Plant response rating (0 = no effect, 100 = complete control), Sunflower ([2]; 125 g ai/ha): 40; Plant response rating, Sunflower ([2]; 250 g ai/ha, scale 0-100): 85; Plant response rating, Surinam Grass (Surinam grass; [28]): 80; Plant response rating, Surinam Grass (Surinam grass; [26]): 95
5 | CCc1nn(C(C)C)nc1C(=O)Nc1cccc(C(=S)N(C)C)c1 [Compound 409] |  |  |  |  |  |  | 60 |  |  |  | 20 | 60 | 55 | 20 | 40 | 50 | 85 | 95 | 20 | 40 | Plant response rating, Sunflower ([2]; 62 g ai/ha, scale 0 to 100): 0; Plant response rating (0 = no effect, 100 = complete control), Sunflower ([2]; 125 g ai/ha): 5; Plant response rating, Surinam Grass (Surinam grass; [28]): 50
